Patent US20090069373A1, “Quinoline Acids” (Wyeth, priority 2007, published 2009)

How the values were obtained:
human LXRβ = biological target: T1, human LXRβ (Homo sapiens, UniProt P55055); test: Ligand-binding test procedure for human LXRβ (3H T0901317 competition, flash plates); conditions: for Binding ratio a/b: IC50 (μM) LXRα binding/IC50 (μM) LXRβ binding; for IC50: biotinylated hLXRβ, tracer 3H T0901317
T1 construct: biotin (biotinylated; biotinylation tag not described); made in house; host or cells: E. coli
T1 sequence (P55055 1-460): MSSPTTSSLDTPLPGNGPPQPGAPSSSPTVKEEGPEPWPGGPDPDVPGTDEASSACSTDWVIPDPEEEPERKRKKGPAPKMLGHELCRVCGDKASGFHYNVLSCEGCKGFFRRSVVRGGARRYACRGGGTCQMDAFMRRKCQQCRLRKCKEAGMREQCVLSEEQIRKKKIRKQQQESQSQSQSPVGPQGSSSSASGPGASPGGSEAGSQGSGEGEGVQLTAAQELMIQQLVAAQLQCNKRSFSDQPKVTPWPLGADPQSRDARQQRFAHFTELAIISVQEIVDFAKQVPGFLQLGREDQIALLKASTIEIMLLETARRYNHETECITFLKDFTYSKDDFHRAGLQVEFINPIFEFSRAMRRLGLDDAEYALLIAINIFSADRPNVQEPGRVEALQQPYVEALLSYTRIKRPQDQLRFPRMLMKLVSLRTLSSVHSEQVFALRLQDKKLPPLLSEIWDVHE

ABCA1 gene = test: Quantitative analysis of ABCA1 gene regulation in THP-1 cells (real-time RT-PCR); type: cell-based, human; conditions: differentiated THP-1 cells, ABCA1 mRNA, 18 hrs; for EC50: Homo sapiens; for THP cells ABCA1 Ag. (%): LXR agonist reference at 1.0 uM as positive control
Method: Quantitative Analysis of ABCA1 Gene Regulation in THP-1 Cells. […] Materials and Methods Cell culture: The THP-1 monocytic cell line (ATCC # TIB-202) was obtained from American Type Culture Collection (Manassas, Va.) and cultured in RPMI 1640 medium (Gibco, Carlsbad, Calif.) containing 10% FBS, 2 mM L-glutamine, and 55 uM beta-Mercaptoethanol (BME). […] Louis, Mo.) for three days to induce differentiation into adherent macrophages. Differentiated THP-1 cells were treated with test compounds or ligands dissolved in DMSO (Sigma, D-8779) in culture medium lacking phorbal ester. […] L., J. Med. Chem. (2000), 45:1963-1966.). Results of antagonist analysis are expressed as % antagonism and IC50 (in μM).

human LXRα = biological target: T2, human LXRα (Homo sapiens, UniProt Q13133); test: Ligand-binding test procedure for human LXRα (3H T0901317 competition, flash plates); conditions: biotinylated hLXRα, tracer 3H T0901317
T2 construct: biotin (biotinylated; biotinylation tag not described); made in house; host or cells: E. coli
T2 sequence (Q13133 1-447): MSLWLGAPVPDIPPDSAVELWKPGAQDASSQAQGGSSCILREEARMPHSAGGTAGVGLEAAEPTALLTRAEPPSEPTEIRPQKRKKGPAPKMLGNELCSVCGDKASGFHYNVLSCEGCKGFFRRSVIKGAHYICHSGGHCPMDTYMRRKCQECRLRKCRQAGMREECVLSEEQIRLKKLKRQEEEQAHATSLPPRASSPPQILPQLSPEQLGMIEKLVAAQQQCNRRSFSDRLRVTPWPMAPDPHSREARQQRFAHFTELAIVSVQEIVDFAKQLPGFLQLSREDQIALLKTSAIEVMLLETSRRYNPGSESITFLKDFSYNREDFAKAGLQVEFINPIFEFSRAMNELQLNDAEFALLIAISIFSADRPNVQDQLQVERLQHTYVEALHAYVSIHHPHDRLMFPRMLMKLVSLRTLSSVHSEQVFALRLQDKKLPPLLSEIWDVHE
How it was run: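 Competition binding of test ligands against 5 nM ³H tracer solution (pre-mix concentration) on biotinylated hLXRα from E. coli extract, captured on streptavidin flash plates (Bmax ~4000 cpm). Ligand dilution series made in DMSO. Incubated overnight at +4 °C; bound radioactivity counted after washing.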

For `Cc1cnc2c(C(F)(F)F)cccc2c1-c1cccc(COc2cccc3c(CC(=O)O)cccc23)c1` [Example 9], the Binding ratio a/b (human LXRβ) was 22, the IC50 (human LXRβ) was 0.013 µM and the EC50 (ABCA1 gene) was 1.14 µM. For the same compound, the “THP cells ABCA1 Ag. (%)” value (ABCA1 gene) was 122.6% and the IC50 (human LXRα) was 0.294 µM.
`O=C(O)Cc1cccc2c(OCc3cccc(-c4ccnc5c(C(F)(F)F)cccc45)c3)cccc12` [Example 5, [5-({3-[8-(Trifluoromethyl)quinolin-4-yl]benzyl}oxy)-1-naphthyl]acetic acid] showed a Binding ratio a/b (human LXRβ) of 30, an IC50 (human LXRβ) of 0.026 µM and an EC50 (ABCA1 gene) of 3.39 µM. The “THP cells ABCA1 Ag. (%)” value (ABCA1 gene) was 69.4% and the IC50 (human LXRα) was 0.779 µM.
In the case of `O=C(O)Cc1cccc2c(NCc3cncc(-c4c(Cc5ccccc5)cnc5c(C(F)(F)F)cccc45)c3)cccc12` [Example 3, {5-[({5-[3-Benzyl-8-(trifluoromethyl)quinolin-4-yl]pyridin-3-yl}methyl)amino]-1-naphthyl}acetic acid], the Binding ratio a/b (human LXRβ) is reported as 32, the IC50 (human LXRβ) is reported as 0.03 µM and the EC50 (ABCA1 gene) is reported as 4.76 µM. For the same compound, the “THP cells ABCA1 Ag. (%)” value (ABCA1 gene) was 69.1% and the IC50 (human LXRα) was 0.964 µM.
`O=C(O)Cc1cccc2c(NCc3cccc(-c4ccnc5c(C(F)(F)F)cccc45)c3)cccc12` [Example 1, [5-({3-[8-(Trifluoromethyl)quinolin-4-yl]benzyl}amino)-1-naphthyl]acetic acid] was tested, and the Binding ratio a/b (human LXRβ) was 48, the IC50 (human LXRβ) was 0.015 µM and the EC50 (ABCA1 gene) was 3.76 µM. The “THP cells ABCA1 Ag. (%)” value (ABCA1 gene) was 91.15% and the IC50 (human LXRα) was 0.745 µM.
`Cc1cnc2c(C(F)(F)F)cccc2c1-c1cccc(CNc2cccc3c(CC(=O)O)cccc23)c1` [Example 13, [5-({3-[3-methyl-8-(trifluoromethyl)quinolin-4-yl]benzyl}amino)-1-naphthyl]acetic acid] showed a Binding ratio a/b (human LXRβ) of 22, an IC50 (human LXRβ) of 0.01 µM and an EC50 (ABCA1 gene) of 2.63 µM. For the same compound, the “THP cells ABCA1 Ag. (%)” value (ABCA1 gene) was 107.8% and the IC50 (human LXRα) was 0.211 µM.
